Results on 1 compound are retold here after publication PMC3174198, “Virtual High-Throughput Screening Identifies Mycophenolic Acid as a Novel RNA Capping Inhibitor” (PLoS ONE, 2011).

One assay relates to S. cerevisiae cells. Nature of the assay: Primer extension analysis of SSA1 mRNA 5' ends (RNA cap formation in cells). Type of assay: cell-based. Conditions: 500 µg/ml MPA for 3 h.
For assay [1], the target named is T1, RNA guanylyltransferase from vaccinia virus (D1R) (Vaccinia virus, UniProt P04298).
T1 construct: made in house
Nature of the assay: biochemical.

Assay [2] addresses T2, GTase of S. cerevisiae (Ceg1 protein) (Saccharomyces cerevisiae, UniProt Q01159).
T2 construct: made in house
T2 sequence (Q01159 1-459): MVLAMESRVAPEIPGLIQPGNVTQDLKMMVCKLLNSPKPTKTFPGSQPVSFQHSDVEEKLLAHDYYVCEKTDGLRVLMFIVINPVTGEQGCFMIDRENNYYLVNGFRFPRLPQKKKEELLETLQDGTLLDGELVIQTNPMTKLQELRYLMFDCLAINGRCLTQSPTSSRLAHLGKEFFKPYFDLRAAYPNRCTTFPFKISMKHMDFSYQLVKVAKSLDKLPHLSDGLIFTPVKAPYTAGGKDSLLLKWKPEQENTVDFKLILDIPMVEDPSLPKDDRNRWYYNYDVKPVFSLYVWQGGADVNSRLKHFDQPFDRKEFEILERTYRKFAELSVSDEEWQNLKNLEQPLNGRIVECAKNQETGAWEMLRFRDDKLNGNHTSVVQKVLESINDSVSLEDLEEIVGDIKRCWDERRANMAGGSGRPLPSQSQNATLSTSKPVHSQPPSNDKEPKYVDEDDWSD
Nature of the assay: Second step of GTase reaction: transfer of GMP onto acceptor RNA. Type of assay: biochemical. Conditions: enzyme pre-incubated with GTP, then acceptor 5'-diphosphate RNA added with MPA. The method, then:
(§1) Figure 2 Mycophenolic acid inhibits the RNA guanylyltransferase activity. (A) Molecular structure of mycophenolic acid (MPA). (B) Increasing concentrations of MPA inhibit the complete RNA guanylyltransferase reaction. […] The reaction products were analyzed on a denaturing polyacrylamide gel and quantified (right side of the panel). (C) MPA is not a potent inhibitor of the first step of the GTase reaction. […] (D) The second step of the GTase reaction is inhibited by MPA. […] Formation of the radiolabeled capped GpppRNA was monitored following electrophoresis on a denaturant polyacrylamide gel.

Assay [3] concerns the target T2, GTase of S. cerevisiae (Ceg1 protein). Nature of the assay: First step of GTase reaction: enzyme-GMP covalent complex formation. Type of assay: biochemical. The method, then:
The assay was performed by incubating the enzyme (0.1 µM) with 10 µM [α-^32P]GTP in a buffer containing 50 mM Tris-HCl, pH 8, 5 mM DTT, and 5 mM MgCl2 for 5 min at 30°C. […] The reactions were analyzed by electrophoresis through a 12.5% polyacrylamide gel containing 0.1% SDS. The radiolabeled proteins were visualized by autoradiography of the gel.
as §1

In assay [4] the target is T3, RNA guanylyltransferase from Chlorella virus (A103R) (Paramecium bursaria Chlorella virus 1, UniProt Q84424).
T3 construct: made in house
T3 sequence (Q84424 whole entry, stated change not applied): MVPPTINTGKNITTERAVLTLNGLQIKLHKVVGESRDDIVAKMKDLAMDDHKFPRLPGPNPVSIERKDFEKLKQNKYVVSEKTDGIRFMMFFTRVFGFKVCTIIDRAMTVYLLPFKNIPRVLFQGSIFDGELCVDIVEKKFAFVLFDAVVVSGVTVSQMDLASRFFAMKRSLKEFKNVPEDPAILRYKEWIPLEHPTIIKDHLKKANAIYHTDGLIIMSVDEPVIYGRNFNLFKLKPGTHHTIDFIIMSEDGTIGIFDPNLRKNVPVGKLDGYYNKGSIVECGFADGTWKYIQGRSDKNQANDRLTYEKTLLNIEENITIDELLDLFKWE
Nature of the assay: First and second step of the GTase reaction, Chlorella enzyme. The assay is classed as biochemical.

Assay [5] addresses T4, Chlorella virus DNA ligase (Paramecium bursaria Chlorella virus 1, UniProt O41026). Nature of the assay: First step of ligation: enzyme-AMP covalent complex formation. The assay is classed as biochemical. The text has this: (§2) An autoradiogram of the gel is shown.
Assay [6] deals with T2, GTase of S. cerevisiae (Ceg1 protein). Nature of the assay: Complete RNA guanylyltransferase reaction (both steps), standard GTase assay. Type of assay: biochemical.
In a further assay the target is T5, RNA guanylyltransferase (Saccharomyces cerevisiae, UniProt Q01159).
T5 construct: made in house
T5 sequence (Q01159 1-459): T2 sequence (Q01159 1-459)
Nature of the assay: Substrate test: capillary electrophoresis of enzyme adduct and TLC of RNA capping products. Type of assay: biochemical, S. cerevisiae. Conditions: 1 mM MPA. The text has this: In the typical GTase reaction, the nucleophilic attack on the α-phosphate of GTP by the enzyme during the first step of the reaction results in the formation of a covalent intermediate in which GMP is linked via a phosphoamide bond to a lysine residue of the enzyme. […] Although MPA is not a nucleoside analog per se, we were still interested to monitor its ability to potentially be used as a substrate by the enzyme. The appearance of a slower migrating protein species is traditionally observed upon electrophoresis through a polyacrylamide gel when an RNA capping enzyme is incubated with GTP [25]. This slower migrating species corresponds to the enzyme with covalently bound GMP. We therefore incubated the enzyme in the presence of GTP or MPA and the polypeptide was analyzed by capillary electrophoresis. […] Aliquots of the RNA samples were then digested with nuclease P1 and alkaline phosphatase and analyzed by polyethyleneimine-cellulose thin layer chromatography (Fig. 3B).
(A) Capillary electrophoresis analysis of the RNA capping reaction. The GTase reactions were performed in the presence of the purified enzyme (1 µM) and GTP (1 mM) or MPA (1 mM), and the reaction products were analyzed by capillary electrophoresis. […] The reaction products were analyzed by thin layer chromatography on a polyethyleneimine-cellulose plate developed with 0.5 M LiCl and 1 M formic acid. […]

Assay [7] has as its target T4, Chlorella virus DNA ligase. Nature of the assay: Second step of ligation: AMP transfer to 5'-phosphate DNA (1-nt gapped substrate). Type of assay: biochemical. As to conditions: enzyme pre-incubated with ATP; 1-nt gapped DNA substrate.
Source text: as §2

The target of assay [8] is T6, human RNA guanylyltransferase (HCE) (Homo sapiens, UniProt O60942).
T6 construct: made in house
T6 sequence (O60942 whole entry): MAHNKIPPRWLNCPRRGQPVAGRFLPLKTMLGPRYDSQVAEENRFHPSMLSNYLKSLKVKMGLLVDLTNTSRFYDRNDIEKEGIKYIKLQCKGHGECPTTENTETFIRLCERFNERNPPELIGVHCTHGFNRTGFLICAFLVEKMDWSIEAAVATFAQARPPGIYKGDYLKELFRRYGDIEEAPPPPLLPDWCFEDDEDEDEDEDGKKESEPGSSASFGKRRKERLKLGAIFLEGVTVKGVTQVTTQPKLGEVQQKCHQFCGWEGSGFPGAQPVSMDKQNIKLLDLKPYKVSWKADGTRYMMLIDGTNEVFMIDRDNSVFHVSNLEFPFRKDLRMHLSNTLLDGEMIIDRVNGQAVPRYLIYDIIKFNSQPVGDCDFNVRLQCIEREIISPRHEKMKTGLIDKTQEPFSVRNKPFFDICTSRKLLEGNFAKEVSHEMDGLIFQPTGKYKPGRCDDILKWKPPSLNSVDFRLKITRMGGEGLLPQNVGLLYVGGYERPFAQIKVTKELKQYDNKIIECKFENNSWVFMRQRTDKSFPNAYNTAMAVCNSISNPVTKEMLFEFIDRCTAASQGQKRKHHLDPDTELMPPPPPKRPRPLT
Nature of the assay: First and second step of the GTase reaction, human enzyme. The assay is classed as biochemical. As to conditions: enzyme-GMP formation.

Assay [9] has as its target T4, Chlorella virus DNA ligase. Nature of the assay: Ligation assay: strand joining of nicked DNA duplex (complete reaction).
Assay [10] concerns the target T7, yeast GTase enzyme-GMP complex (Saccharomyces cerevisiae, UniProt Q01159).
T7 construct: made in house
Nature of the assay: UV-crosslinking of radiolabelled RNA to the enzyme-GMP complex. On the set-up: species or system S. cerevisiae. Conditions: 81 nt 5'-triphosphate radiolabelled RNA (3 µM), read-out: IC50 for inhibition of RNA binding to the enzyme-GMP complex. Here is the method:
UV-crosslinking between the internally ^32P-labeled RNA of 81 nt and the yeast GTase was performed in a crosslink buffer (50 mM Tris pH 7.5, 5 mM DTT, 5 mM MgCl2). The protein (12 µM) was incubated with GTP (1 mM) and different concentrations of MPA for 10 minutes at 30°C. The radiolabeled RNA (3 µM) was added to the reaction mixture and incubated for 5 minutes at 30°C. The reaction mixture was exposed to UV light (254 nm, 20 Joules/cm^2) for 5 min at 30°C using a Stratalinker 2400 UV Crosslinker (Stratagene). The crosslink mixture was denatured (50 mM Tris-HCl, pH 7.0, 5% sucrose, 5% b-mercaptoethanol, 2% SDS) and separated by electrophoresis on a 12% SDS-PAGE. The gel was analyzed by phosphorimaging.
It is tempting to speculate that the opening of the active site of the enzyme that is normally observed following the hydrolysis of GTP to produce the enzyme-GMP covalent intermediate is inhibited by MPA. Following the formation of the GMP adduct, the enzyme must open up to provide access for the incoming mRNA substrate, since this site is blocked off in the closed form of the enzyme. […] In order to validate this hypothesis, cross-linking assays were used to monitor the binding of radiolabelled RNA to the enzyme-GMP complex with or without MPA. […]
Figure 5 Binding of MPA to the enzyme-GMP complex inhibits the interaction with RNA. […] (B) The reaction products were quantified by phosphorimaging.

T4 sequence (O41026 entry or part of it): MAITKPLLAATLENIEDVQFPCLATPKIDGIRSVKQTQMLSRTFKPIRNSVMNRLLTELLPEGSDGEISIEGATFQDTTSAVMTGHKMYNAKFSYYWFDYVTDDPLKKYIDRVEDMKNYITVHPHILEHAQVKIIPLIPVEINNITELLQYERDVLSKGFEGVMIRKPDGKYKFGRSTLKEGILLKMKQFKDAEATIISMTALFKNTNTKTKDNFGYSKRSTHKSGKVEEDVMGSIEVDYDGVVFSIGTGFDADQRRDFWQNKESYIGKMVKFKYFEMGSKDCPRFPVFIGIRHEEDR

As for `COc1c(C)c2c(c(O)c1C/C=C(\C)CCC(=O)O)C(=O)OC2` [MPA, mycophenolic acid], the “reduction of cap formation” value in the assay with S. cerevisiae cells amounted to 50%. Besides, the IC50 (in general, the point on the concentration scale where inhibition reaches its midpoint) is roughly 3 mM in assay [1]; 0.64 mM in assay [2]; 3 mM in assay [3]; roughly 3 mM in [4]; roughly 3 mM in assay [5] (enzyme-AMP covalent complex formation); 0.36 mM in assay [6]. For the same compound, the IC50 is 0.6 mM in [7], roughly 3 mM in assay [8], 0.7 mM in assay [9] and 0.41 mM in [10]. Moreover, the “concentration for first step relative to amount required to inhibit the overall GTase reaction” value in assay [3] (first step IC50 / overall (both steps) IC50) was found to be 8 times. In addition, the “concentration for first step relative to amount required to inhibit the overall reaction” value in assay [5] (first step IC50 / overall ligation IC50) is reported as 4 times. In assay [6] (at 900 µM MPA, both steps, read-out: inhibition of the overall GTase activity), the inhibition (commonly the drop in the measured response relative to a control, in per cent) at 900 µM amounted to 80%. Further, the “use as substrate by the GTase (slower migrating covalent enzyme species)” value at RNA guanylyltransferase (capillary electrophoresis) is reported as “not a substrate”. The “transfer to an acceptor RNA” value on RNA guanylyltransferase (nuclease P1 + alkaline phosphatase digestion, TLC) is on record as “could not be detected”.
